Residues, ends and D or L forms follow the SMILES beside them. *: point of attachment. Cbz = O=C(OCc1ccccc1)*
Columns and labels:
[1] = target: CPEB1 (Homo sapiens, UniProt Q9BZB8); assay: scanning fluorimetry with purified CPEB1 protein; type: binding
Description: (FIG. 9B) ASR488 treatment induces p53 independent p27 upregulation in Bladder Cancer cells. (FIG. 9C) The result is GO/G1 cell cycle arrest in ASR488 treated Bladder Cancer Cells. (FIG. 9D) p27 upregulation is due to CPEB1 induction by overexpressing CPEB1 in TCCSUP cells.

[2] = test system: TCCSUP cells; assay: RNA-seq differential gene expression analysis; type: cell-based
Description: RNA isolation, cDNA library construction, and DNA sequencing. TCCSUP cells treated with vehicle (DMSO) or ASR488 were subjected to RNA isolation using TRIzol® (Invitrogen; Thermo Fisher Scientific, Inc., Waltham, Mass., USA) according to the manufacturer's protocol. Nano Photometer® spectrophotometer (Implen, Inc., Westlake Village, Calif., USA) was used to measure the RNA concentration and purity of the samples. A cDNA library was then constructed using an NEB Next® Ultra™ RNA Library Prep kit for Illumina® (New England Biolabs, Inc., Ipswich, Mass., USA) by Novogene Bioinformatics Technologies Co. Ltd. (Beijing, China) following the manufacturer's protocols. Subsequently, polymerase chain reaction (PCR) was, Universal PCR primers, and Index (X) Primer for double-stranded cDNA amplification. The PCR products generated for PCR performed using Phusion High Fidelity DNA polymerase were purified using the AMPure XP system, and Agilent Bioanalyzer 2100 system was used to analyze the library quality. The cDNA library was sequenced using an Illumina Hiseq 2000/2500 platform and 100 bp/50 bp single-end reads were generated.
Data Analysis. Bioinformatics analysis was performed using a combination of programs including STAR, HTseq, Cufflink, and our wrapped scripts. Tophat program was used to parse the alignments and DESeq2/edgeR was utilized to ascertain differential expressions. To determine GO and KEGG enrichment Cluster Profiler was used.
For DESeq2 with biological replicates: DESeq2 R package (2_1.6.3) was used to analyze differential expression between the ASR488 treated and control groups (two biological replicates per condition). The p-values obtained from the analysis were adjusted using the Benjamini and Hochberg's approach so that the false discovery rate (FDR) can be controlled. The genes having adjusted p-value <0.05 were assigned as differentially expressed.
For edge R without biological replicates: EdgeR program package (3.16.5) was used to adjust the read counts for each sequenced library before differential gene expression analysis, through one scaling normalized factor. The p-values were adjusted using the Benjamini and Hochberg method. […] The Venn diagrams were prepared using the function Venn diagram in R based on the gene list for different groups.

[3] = test system: CPEB1 knockdown TCCSUP cells; assay: cell death in CPEB1 siRNA knockdown cells; type: cell-based
Description: To analyze whether ASR488 treatment can induce p27 mediated cell death in CPEB1 knockdown bladder cancer cells, we knocked down CPEB1 with SiRNA in TCCSUP cells. (FIG. 11A) ASR488 treatment was unable to restore CPEB1 expression in CPEB1 knockdown cells. Moreover, P27 expression corresponded with CPEB1 expression pattern in the Knockdown cells.

[4] = test system: HT1376 cells; assay: MTT cell viability assay; type: cell-based
Description: (§1) Cell culture and viability assay. […] Cell lines were maintained in Eagle's Minimum Essential Medium at 37° C. and 5% CO2. […] TCCSUP and HT1376 cells were treated with varying concentrations of ASR488 (0.2-12.5 μM) for 24, 48, and 72 h.

[5] = test system: TCCSUP cells; assay: MTT cell viability assay; type: cell-based
Description: as §1

[6] = test system: TCCSUP cells; assay: qRT-PCR of top upregulated genes; type: cell-based; details: vs vehicle (DMSO)
Description: The blue dots represent the genes that are without any significant diversity. […] The sum of the numbers in each large circle are the total number of genes in ASR488-treated or vehicle-treated TCCSUP cells, and the common genes among the samples are represented in the overlapping part.

[7] = test system: normal BCa cells; assay: toxicity to normal cells; type: cell-based
[8] = test system: HT1376 cells; assay: Annexin V-FITC/PI apoptosis flow cytometry; type: cell-based; details: HT1376, 24 h treatment
Description: (§2) Detection of apoptosis by flow cytometry and immunoblotting. Annexin V-fluorescein isothiocyanate (FITC) against propidium iodide (PI) assay (FITC Annexin V Apoptosis Detection Kit I, BD Pharminogen, San Diego, Calif., USA) was used for detecting apoptosis as described previously. Total protein extracts from TCCSUP cells were prepared with the Mammalian Protein Extraction Reagent (Thermo Scientific, Rockford, Ill., USA) according to the manufacturer's instructions. Western blotting was performed using specific antibodies against Cleaved PARP (Cat #5625), BAX (Cat #5023) (Cell signaling Technology), and β-actin (Santa Cruz Biotechnologies, Dallas, Tex., USA). The positive bands were detected using enhanced chemiluminescence.

[9] = test system: TCCSUP cells; assay: Annexin V-FITC/PI apoptosis flow cytometry; type: cell-based; details: 24 h treatment
Description: as §2

[10] = test system: Notch 1 activation in MDA-MB-231 TNBC cells; assay: Western blot of NICD and HES1; type: cell-based; details: vs vehicle treated controls
[11] = test system: MDA-MB-231 TNBC cells; assay: cell viability assay; type: cell-based; details: 1/20th of IC50 of DOX alone
Description: Synergistic effects of combinations were calculated via isobologram analysis.

[12] = test system: ubiquitin in ALDH+ cells; assay: ubiquitin expression; type: cell-based
Description: Commercially available positive and negative controls were used for these experiments.

Chain of CPEB1 (Q9BZB8 whole entry): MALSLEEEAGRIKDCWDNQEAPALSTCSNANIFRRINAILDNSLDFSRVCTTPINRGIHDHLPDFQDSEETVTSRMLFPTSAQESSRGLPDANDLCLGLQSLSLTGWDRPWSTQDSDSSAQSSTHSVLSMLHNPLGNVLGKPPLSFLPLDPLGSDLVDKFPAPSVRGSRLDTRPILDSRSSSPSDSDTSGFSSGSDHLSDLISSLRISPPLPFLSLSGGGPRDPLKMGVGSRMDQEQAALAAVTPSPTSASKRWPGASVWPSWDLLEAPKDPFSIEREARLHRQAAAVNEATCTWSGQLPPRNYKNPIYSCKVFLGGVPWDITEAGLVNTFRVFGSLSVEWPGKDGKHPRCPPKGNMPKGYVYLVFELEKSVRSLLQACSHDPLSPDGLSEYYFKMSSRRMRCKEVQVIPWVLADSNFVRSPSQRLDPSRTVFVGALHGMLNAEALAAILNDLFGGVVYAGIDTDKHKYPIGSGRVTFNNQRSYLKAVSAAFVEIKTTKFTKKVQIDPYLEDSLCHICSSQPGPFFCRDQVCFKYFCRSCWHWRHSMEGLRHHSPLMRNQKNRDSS

SMILES: CC1=C(CO)C(=O)O[C@@H]([C@@H](C)[C@H]2CC[C@H]3[C@@H]4C[C@H]5O[C@]56[C@@H](OC(=O)c5cccs5)C=CC(=O)[C@]6(C)[C@H]4CC[C@]23C)C1 [ASR488]
- change of Tm of bound CPEB1 [1]: 9 °C
- Log2 (fold-change) ACTG2 ([2]; gene ACTG2, treated TCCSUP cells): 3.0293
- Log2 (fold-change) BBOX1 ([2]; gene BBOX1, treated TCCSUP cells): −2.2384
- Log2 (fold-change) CMPK2 ([2]; gene CMPK2, treated TCCSUP cells): −1.8470
- Log2 (fold-change) CPEB1 ([2]; gene CPEB1, treated TCCSUP cells): 6.3347
- Log2 (fold-change) CYP4F11 ([2]; gene CYP4F11, treated TCCSUP cells): 8.3568
- Log2 (fold-change) DDX60 ([2]; gene DDX60, treated TCCSUP cells): −2.5069
- Log2 (fold-change) FOS ([2]; gene FOS, treated TCCSUP cells): −1.9465
- Log2 (fold-change) GBP4 ([2]; gene GBP4, treated TCCSUP cells): −2.2704
- Log2 (fold-change) GNGT2 ([2]; gene GNGT2, treated TCCSUP cells): 2.5802
- Log2 (fold-change) HSPA6 ([2]; gene HSPA6, treated TCCSUP cells): 3.5985
- Log2 (fold-change) IFI44L ([2]; gene IFI44L, treated TCCSUP cells): −1.9791
- Log2 (fold-change) IFIT2 ([2]; gene IFIT2, treated TCCSUP cells): −1.8473
- Log2 (fold-change) IL11 ([2]; gene IL11, treated TCCSUP cells): 2.9265
- Log2 (fold-change) MAP1A ([2]; gene MAP1A, treated TCCSUP cells): 2.1205
- Log2 (fold-change) OASL ([2]; gene OASL, treated TCCSUP cells): −1.9737
- Log2 (fold-change) RSAD2 ([2]; gene RSAD2, treated TCCSUP cells): −2.2235
- Log2 (fold-change) SFN ([2]; gene SFN, treated TCCSUP cells): 3.7239
- Log2 (fold-change) SPHK1 ([2]; gene SPHK1, treated TCCSUP cells): 4.6389
- Log2 (fold-change) STEAP4 ([2]; gene STEAP4, treated TCCSUP cells): −1.8141
- Log2 (fold-change) TAGLN ([2]; gene TAGLN, treated TCCSUP cells): 2.3661
- cell death in CPEB1 knockdown cells [3]: did not induced cell death
- IC50 ([4]; HT1376, 24 h): 1280 nM
- IC50 ([4]; HT1376, 48 h): 750 nM
- IC50 ([4]; HT1376, 72 h): 850 nM
- IC50 ([5]; 24 h): 800 nM
- IC50 ([5]; 48 h): 480 nM
- IC50 ([5]; 72 h): 450 nM
- CPEB1 upregulation by qRT-PCR [6]: 36 fold
- CYP4F11 upregulation by qRT-PCR [6]: 15.8 fold
- IL11 upregulation by qRT-PCR [6]: 30 fold
- SFN upregulation by qRT-PCR [6]: 20.12 fold
- toxicity to normal cells [7]: non-toxic
- apoptosis [8]: 23.2%
- apoptosis [9]: 30.5%

SMILES: COc1cccc2c1C(=O)c1c(O)c3c(c(O)c1C2=O)C[C@@](O)(C(=O)CO)C[C@@H]3O[C@H]1C[C@H](N)[C@H](O)[C@H](C)O1 [DOX, Doxorubicin, reference compound]
- Notch 1 activation (NICD and HES 1 levels) [10]: induction of Notch 1 activation
- growth inhibition alone [11]: did not inhibit the growth

SMILES: CC(C)C[C@@H](C=O)NC(=O)[C@H](CC(C)C)NC(=O)[C@H](CC(C)C)NC(=O)OCc1ccccc1 [MG-132, reference compound] (Cbz-Leu-Leu-Leu-aldehyde)
- ubiquitin expression [12]: higher level of ubiquitin

Reference: patent publication US20230103142A1, “SMALL MOLECULE REGULATORS OF NOTCH1 AND USES THEREOF” (THE PENN STATE RESEARCH FOUNDATION, priority 2020, published 2023)
